The test system of data set [1] is S. mansoni. As to the kind of experiment: PZQ-induced efficacy (worm and egg burden reduction) in S. mansoni infected WT mice. The format is in vivo, Schistosoma mansoni. From the text:
(§1) Lower […] Analytical acceptance criteria were reported previously (1). […] Reactions were […]

Data set [2] concerns S. mansoni. As to the kind of experiment: PZQ-induced efficacy (worm and egg burden reduction) in S. mansoni infected 8HUM mice. In kind it is in vivo, Schistosoma mansoni. To be noted: for worm burden reduction: day 47.
Source text: as §1

The test system of data set [3] is S. mansoni. Conditions: cited from earlier work.
Data set [4] is classed as in vitro ADME. To be noted: human, microsomes. The procedure:
Supernatants were analysed by LC-MS/MS immediately. […] Chromatographic separation was achieved using a previously described method (2) with minor modifications. […] The flow rate was 1.2 mL/min. […] used. […] Intrinsic clearance determination […] Lower […]

Data set [5] is classed as in vitro ADME. Conditions: mouse, microsomes.
Data set [6] is described as follows: PK in S. mansoni infected WT mice, oral rac-PZQ. The format is in vivo. To be noted: female, mouse, whole blood, single oral 400 mg/kg rac-PZQ at 41 d postinfection, total blood, n = 3.
A short description of data set [7]: PK in S. mansoni infected 8HUM mice, oral rac-PZQ. In kind it is in vivo. Conditions: female, mouse, whole blood, total blood, n = 3.
A short description of data set [8]: Range-finding PK study, uninfected 8HUM mice, oral rac-PZQ. In kind it is in vivo, mouse. To be noted: for AUC(0-t) / Cmax: female, mouse, whole blood, uninfected 8HUM mice, single oral 25 mg/kg rac-PZQ, total blood, n = 2. The procedure: Dose formulations were prepared on the day of dosing. […] Supernatants were analysed by LC-MS/MS immediately. […] Chromatographic separation was […] […] […] used. […] Intrinsic clearance determination […] […] Lower […] […] Analytical acceptance criteria were reported previously (1).

The nature of data set [9]: Range-finding PK study, uninfected WT mice, oral rac-PZQ. To be noted: female, WT (wild-type), mouse, whole blood, 400 mg/kg.
Setting [10] is: single oral 400 mg/kg, day 47, 400 mg/kg.

Where “and” joins values, the source holds several entries; their conditions need not be identical. Equal values may be shown once. Read-outs that look alike come from different tables or passages of the source. Bounds are passed on as bounds.

Consider `O=C(C1CCCCC1)N1CC(=O)N2CCc3ccccc3C2C1` (racemic) [rac-PZQ, praziquantel], for which the “reduction in adult worm burdens” value in data set [1] (single oral 400 mg/kg at 41 d postinfection, day 47, vs excipient controls) is on record as 93%. Besides, the “worm burden reduction, females” value in [1] (setting [10]) is on record as 95%. Moreover, in [1] (setting [10]), the “worm burden reduction, males” value is recorded as 90%. Moreover, the worm burden reduction was 92% in data set [2] (8HUM mice, single oral 100 mg/kg, 100 mg/kg); above 90% in data set [2] (8HUM mice, single oral 100 mg/kg, listed as PZQ, 100 mg/kg); 98% in [2] (8HUM mice, single oral 200 mg/kg). Further, the “reductions in worm burdens” value in data set [2] (8HUM mice, single oral doses of 100 to 200 mg/kg bodyweight) is above 90%. Also, in [2] (single 100 mg/kg oral dose, 8HUM (this study) vs WT (ref 7)), the “increase in efficacy in 8HUM mice vs WT mice at the same dose” value was “approximately twofold”. In data set [3] (WT animals, single oral dose of 400 mg/kg rac-PZQ, 400 mg/kg), the “drug-induced efficacy (worm burden reduction)” value is ~ 94% and > 90%. For the same compound, the “reduction in worm burden” value in [3] (WT mice, single 100 mg/kg bodyweight oral dose, at most) is reported as at most 53%. In addition, the “Microsomal CLint” value is reported as 3.2 mL/min/g in [4] and 2.7 mL/min/g in data set [5].

In the case of `O=C(C1CCC(O)CC1)N1CC(=O)N2CCc3ccccc3C2C1` (stereo not drawn) [4OH-PZQ], the AUC(0-t) in [6] amounted to 197000 ng·h/mL; in data set [7] (single oral 100 mg/kg rac-PZQ), 108000 ng·h/mL; in data set [7] (single oral 200 mg/kg rac-PZQ), 19400 ng·h/mL; in [8] it was 19400 ng·h/mL; in data set [9], 98500 ng·h/mL. Besides, the Cmax in data set [6] came to 42600 ng/mL; in [7] (single oral 100 mg/kg rac-PZQ), 21700 ng/mL; in [7] (single oral 200 mg/kg rac-PZQ), 5360 ng/mL; in [8], 5360 ng/mL; in data set [9] it was 27600 ng/mL. In addition, the “AUClast and Cmax in 8HUM animals, fold lower compared to WT animals” value in data set [8] (8HUM 25 mg/kg vs WT 400 mg/kg rac-PZQ, oral, uninfected) is reported as “~ fivefold”.

With `O=C(C1CCCCC1)N1CC(=O)N2CCc3ccccc3[C@@H]2C1` [R-PZQ], the AUC(0-t) turned out to be 73600 ng·h/mL in [6]; 25700 ng·h/mL in [7] (single oral 100 mg/kg rac-PZQ); 68300 ng·h/mL in data set [7] (single oral 200 mg/kg rac-PZQ); 2860 ng·h/mL in [8]; 12000 ng·h/mL in data set [9]. In addition, the Cmax in data set [6] came to 25800 ng/mL; in data set [7] (single oral 100 mg/kg rac-PZQ), 13200 ng/mL; in data set [7] (single oral 200 mg/kg rac-PZQ), 20800 ng/mL; in data set [8], 2210 ng/mL; in [9], 7740 ng/mL.
